Eleven compounds from patent US20170007610A1, “NOVEL HETEROBICYCLIC COMPOUNDS AS KAPPA OPIOID AGONISTS” (priority 2014, published 2017) can be followed below.

Assay [1] concerns the target T1, kappa opioid receptor (Mus musculus, UniProt P33534).
T1 construct: from tissue; host or cells: mouse vas deferens (male Swiss Albino mice)
Put plainly: Ex-vivo KOR agonistic activity, electrically stimulated mouse vas deferens (MVD) model. As for the experimental part: a) Ex-Vivo KOR Agonistic Activity Testing, Using Electrically Stimulated Mouse Vas Deferens (MVD) Model:
Ex-vivo, the kappa opioid receptor agonistic activity of test compounds were tested on the electrically stimulated mouse vas deferens (MVD) preparations (Henderson et al., Br. J. Pharmacol., 46, 764-766, 1972; Portoghese et al., Life Sci. 36, 801-805, 1985) and IC50 were determined. In general, vas deferentia were taken from male Swiss Albino mice (30-40 g) and suspended in 8 ml organ baths, at 31° C., containing modified Krebs-Henseleit solution, without magnesium sulphate. Each vas deferens was equilibrated for 45 min at 2.6 mN tension and then stimulated at supramaximal voltage with five 1 ms pulses, at a frequency of 0.1 Hz. Concentration-response curves were determined by cumulative dosing. Inhibitory Concentration, 50% (IC50) values were determined by Sigmoidal dose-response (variable slope) equation, using Prizm v 6.01. The kappa opioid receptor specificity was determined by rightward shift in concentration-response curves in presence of 1 nM norbinaltorphimine (norBNI), a selective kappa opioid receptor antagonist.

The target of assay [2] is T2, kappa opioid receptor (Homo sapiens, UniProt P41145).
T2 construct: grown in complete Ham's F-12 medium
T2 sequence (P41145 whole entry): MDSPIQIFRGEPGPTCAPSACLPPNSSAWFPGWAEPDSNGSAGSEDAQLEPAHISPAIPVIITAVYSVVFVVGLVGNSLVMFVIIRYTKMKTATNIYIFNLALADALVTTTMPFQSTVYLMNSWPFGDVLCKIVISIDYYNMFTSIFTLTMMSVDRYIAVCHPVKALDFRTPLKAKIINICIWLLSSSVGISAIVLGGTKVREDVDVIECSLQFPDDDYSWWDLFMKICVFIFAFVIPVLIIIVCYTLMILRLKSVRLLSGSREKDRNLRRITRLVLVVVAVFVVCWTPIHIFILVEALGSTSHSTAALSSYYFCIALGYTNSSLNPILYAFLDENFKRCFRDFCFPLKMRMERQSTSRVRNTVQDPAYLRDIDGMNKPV
The assay can be described thus: Invitro KOR agonistic activity, cAMP based functional assay. The assay is classed as cell-based.

T1 sequence (P33534 whole entry): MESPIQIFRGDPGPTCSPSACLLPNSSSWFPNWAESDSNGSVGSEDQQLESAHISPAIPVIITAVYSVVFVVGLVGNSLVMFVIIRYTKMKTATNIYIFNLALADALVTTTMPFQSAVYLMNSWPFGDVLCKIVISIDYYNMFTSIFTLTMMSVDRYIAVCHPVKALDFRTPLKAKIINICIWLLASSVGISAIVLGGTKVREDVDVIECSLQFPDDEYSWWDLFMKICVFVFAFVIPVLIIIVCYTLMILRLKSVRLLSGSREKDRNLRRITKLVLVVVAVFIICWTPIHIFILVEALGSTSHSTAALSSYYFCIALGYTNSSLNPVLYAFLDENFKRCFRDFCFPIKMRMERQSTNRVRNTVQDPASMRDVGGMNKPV

By IC50 is commonly meant the point on the concentration scale where inhibition reaches its midpoint. As usually defined, the EC50 is the concentration giving half of the maximal effect. High values mean a less potent agent, low ones a more potent agent. As for `CN(C(=O)COc1ccc(NC(=O)CN)c2ncccc12)[C@H](CN1CC[C@H](O)C1)c1ccccc1` [Compound 33, 2-((8-(2-aminoacetamido)quinolin-5-yl)oxy)-N-((S)-2-((S)-3-hydroxypyrrolidin-1-yl)-1-phenylethyl)-N-methylacetamide], in assay [1], the IC50 came out at 8.4 nM. This compound gave a concentration for a half-maximal effect (EC50) in assay [2] of 0.006 nM.

On to `CN(C(=O)COc1ccc(NC(=O)CO)c2ncccc12)[C@H](CN1CC[C@H](O)C1)c1ccccc1` [Compound 34, 2-((8-(2-hydroxyacetamido)quinolin-5-yl)oxy)-N-((S)-2-((S)-3-hydroxypyrrolidin-1-yl)-1-phenylethyl)-N-methylacetamide], for which, in assay [1], the 50% inhibitory concentration (IC50) came to 258 nM. This compound returned an EC50 in assay [2] of 0.49 nM.

`COC(=O)Nc1cccc([C@@H](CN2CC[C@H](O)C2)N(C)C(=O)COc2ccc3c(c2)OCO3)c1` [Compound 58, Methyl-(3-((S)-1-(2-(benzo[d][1,3]dioxol-5-yloxy)-N-methylacetamido)-2-((S)-3-hydroxypyrrolidin-1-yl)-ethyl)phenyl)carbamate] gave an IC50 in assay [1] of 9.8 nM. Besides, the EC50 in assay [2] came out at 0.098 nM.

Consider `CN1CCCc2cccc(OCC(=O)N(C)[C@H](CN3CC[C@H](O)C3)c3ccccc3)c21` [Compound 13, N-((S)-2-((S)-3-hydroxypyrrolidin-1-yl)-1-phenylethyl)-N-methyl-2-((1-methyl-1,2,3,4-tetrahydroquinolin-8-yl)oxy)acetamide], for which the IC50 in assay [1] was found to be 125 nM. In assay [2], this compound gave an EC50 of 0.91 nM.

As to `CN(C(=O)COc1ccc(NS(C)(=O)=O)c2c1NCCC2)[C@H](CN1CC[C@H](O)C1)c1ccccc1` [Compound 14, N-((S)-2-((S)-3-hydroxypyrrolidin-1-yl)-1-phenylethyl)-N-methyl-2-((5-(methylsulfonamido)-1,2,3,4-tetrahydroquinolin-8-yl)oxy)acetamide], the IC50 in assay [1] was found to be 5.4 nM. This compound also displayed a half-maximal effective concentration (EC50) in assay [2] of 0.012 nM.

In assay [1], `CN(C(=O)COc1ncc2ccc(Br)cc2n1)[C@H](CN1CC[C@H](O)C1)c1ccccc1` [Compound 28, 2-((7-bromoquinazolin-2-yl)oxy)-N-((S)-2-((S)-3-hydroxypyrrolidin-1-yl)-1-phenylethyl)-N-methylacetamide] showed an IC50 of 1490 nM. Further, in assay [2], the EC50 amounted to 1.42 nM.

`CN(C(=O)COc1ccnc2ccc(NS(C)(=O)=O)cc12)[C@H](CN1CC[C@H](O)C1)c1ccccc1` [Compound 4, N-((S)-2-((S)-3-hydroxypyrrolidin-1-yl)-1-phenylethyl)-N-methyl-2-((6-methylsulfonamido)quinolin-4-yloxy)acetamide]: the IC50 in assay [1] is 1500 nM. The 50% effective concentration (EC50) in assay [2] was found to be 1.21 nM.

On to `CCN(CC)S(=O)(=O)Nc1ccc(OCC(=O)N(C)[C@H](CN2CC[C@H](O)C2)c2ccccc2)c2cccnc12` [Compound 25, 2-((8-((N,N-diethylsulfamoyl)amino)quinolin-5-yl)oxy)-N-((S)-2-((S)-3-hydroxypyrrolidin-1-yl)-1-phenylethyl)-N-methyl-acetamide], for which, in assay [1], the IC50 came out at 8.1 nM. This compound gave a 50% effective concentration (EC50) in assay [2] of 0.003 nM.

In the case of `CN(C(=O)COc1ccc(NS(C)(=O)=O)c2nccnc12)[C@H](CN1CC[C@H](O)C1)c1ccccc1` [Compound 27, N-((S)-2-((S)-3-hydroxypyrrolidin-1-yl-)-1-phenylethyl)-N-methyl-2-((8-(methylsulfonamido)quinoxain-5-yl)oxy)acetamide], the IC50 in assay [1] is 169 nM. Besides, it took 2.11 nM to reach a half-maximal effect in assay [2] (EC50).

Compound `CN(C(=O)COc1ccc(NS(C)(=O)=O)c2ncccc12)[C@H](CN1CC[C@H](O)C1)c1cccc(F)c1` [Compound 52, N-((S)-1-(3-fluorophenyl)-2-((S)-3-hydroxypyrrolidin-1-yl)ethyl)-N-methyl-2-((8-(methylsulfonamido)quinolin-5-yl)oxy) acetamide] displayed a 50% inhibitory concentration (IC50) in assay [1] of 21 nM. Also, the concentration for a half-maximal effect (EC50) in assay [2] was 0.18 nM.

For the compound `CN(C(=O)COc1ccc(NCCO)c2ncccc12)[C@H](CN1CC[C@H](O)C1)c1ccccc1` [Compound 41], in assay [1], the concentration for half-maximal inhibition (IC50) amounted to 254 nM. Besides, the concentration giving a half-maximal response (EC50) in assay [2] was found to be 1.32 nM.
